The results in this text go back to patent publication US20140179523A1, “HERBICIDAL COMPOSITIONS COMPRISING 4-AMINO-3-CHLORO-6-(4-CHLORO-2-FLUORO-3-METHOXYPHENYL) PYRIDINE-2-CARBOXYLIC ACID OR A DERIVATIVE THEREOF AND FLUFENACET” (DOW AGROSCIENCES LLC, priority 2012, published 2014).

This test has as its system field violet (Viola arvensis, VIOAR). Nature of the test: Field trials, post-emergence application in winter wheat, % biomass control visually rated. Format: in vivo. From the text:
The materials were applied early post-emergence. % BIOMASS CONTROL was visually rated.

As for `CC(C)N(C(=O)COc1nnc(C(F)(F)F)s1)c1ccc(F)cc1` [Flufenacet, N-(4-fluorophenyl)-N-(1-methylethyl)-2-[[5-(trifluoromethyl)-1,3,4-thiadiazol-2-yl]oxy]acetamide], for the setting “flufenacet 240 g ai/ha”, the “% BIOMASS CONTROL 39 DAA Obs” value is listed as 10.00d %, the “% BIOMASS CONTROL 181 DAA Obs” value came out at 15.00g % and the “% BIOMASS CONTROL 225 DAA Obs” value is reported as 10.00g %.
Turning to `COC(=O)c1nc(-c2ccc(Cl)c(OC)c2F)cc(N)c1Cl` [Cmpd 1, methyl 4-amino-3-chloro-6-(4-chloro-2-fluoro-3-methoxyphenyl)-pyridine-2-carboxylate], under “Cmpd 1 7.5 g ae/ha”, the “% BIOMASS CONTROL 39 DAA Obs” value was found to be 13.33d %, the “% BIOMASS CONTROL 181 DAA Obs” value was determined as 23.33f % and the “% BIOMASS CONTROL 225 DAA Obs” value is given as 18.33f %.
